Where two headings read alike, the source gives them in different places.
Columns and labels:
WI-38 cells [1] = conditions: for No H2O2 stress treatment, at 10 uM (fold change): normalized ATP measurement; for Assay 1: H2O2-resistant: YES/NO, if NO, possibly due to repeated freezing/thawing of stocks
[2] = system: phosphorylated γH2A.X and TP53BP1; assay: DNA damage marker analysis (immuno-staining); conditions: for activity at 10 µM: Homo sapiens, WI-38, 24 h
How it was run: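 WI-38 cells were cultured 24 h, then treated with compounds for 24 h; H2O2 (700 μM, 3 h) and doxorubicin (300 nM, 24 h) served as DNA-damage controls. After fixation, cells were immunostained for phospho-γH2A.X (Ser-139) and phospho-TP53BP1 (Ser-1778), counterstained with DAPI, and imaged by automated high-content microscopy.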

WI-38 cells [3] = assay: Long-term effects on cell viability (5 days, ATP; morphology, PI imaging); type: cell-based; conditions: for viability at 10 µM: Homo sapiens, WI-38, 120 h, read-out: ATP luminescence by day-5 normalized;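 for Luminescence signal for ATP measurement, day-2 Average: compounds at 10 µM with ATP read daily over 5 days of treatment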;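 for Luminescence signal for ATP measurement, day-3 Average: compounds at 10 µM with ATP read daily over 5 days of treatment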;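 for Luminescence signal for ATP measurement, day-4 Average: compounds at 10 µM with ATP read daily over 5 days of treatment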;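 for Luminescence signal for ATP measurement, day-5 Average: compounds at 10 µM with ATP read daily over 5 days of treatment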
FOXO3 = FOXO3 siRNA knockdown: dependency for H2O2-resistance; type: cell-based, human
C. elegans = C. elegans lifespan assays (liquid and plate); type: in vivo, Caenorhabditis elegans; conditions: for ILS at 60 µM / ILS at 66 µM: Caenorhabditis elegans; for Extension of C. elegans' lifespan (qualitative): in at least 3 to 4 trials, group range ~10% to ~50%
[4] = WI-38 cells, 10 μM, (*) = compromised ability to protect cells from H2O2, could be due to stability issue
[5] = asterisks indicate the loss of the ability to protect cells from H2O2 over time
[6] = derived from dose response curves, 0.6-20 uM, H2O2-resistance of WI-38 cells
[7] = read-out: Est. ED50, dose response 0.6-20 μM, H2O2-resistance
[8] = read-out: Experiment 1, H2A.X-P DNA damage foci staining (no H2O2 stress treatment), at 10 uM
[9] = read-out: Experiment 2, H2A.X-P DNA damage foci staining (no H2O2 stress treatment), at 10 uM
[10] = read-out: Experiment 2, H2A.X-P DNA damage foci staining (under H2O2 stress treatment), at 10 uM
[11] = read-out: Experiment 2, TP53BP1-P DNA damage foci staining (no H2O2 stress treatment), at 10 uM
[12] = read-out: Experiment 2, TP53BP1-P DNA damage foci staining (under H2O2 stress treatment), at 10 uM
[13] = negative point, cultured human cells
[14] = Batch 1, 10 μM, day-1, n = 6, day-0 luminescence = 320956 ± 24708
[15] = Batch 1, 10 μM, day-2, n = 6, day-0 luminescence = 320956 ± 24708
[16] = Batch 1, 10 μM, day-3, n = 6, day-0 luminescence = 320956 ± 24708
[17] = Batch 1, 10 μM, day-4, n = 6, day-0 luminescence = 320956 ± 24708
[18] = Batch 1, 10 μM, day-5, n = 6, day-0 luminescence = 320956 ± 24708
[19] = Batch 1, 10 μM, day-5, DMSO ctrl = 100.0%
[20] = 60 μM, in liquid, wild type, with FuDR, 1.0 × 10^9 bacteria/ml, read-out: relative change of mean lifespan vs control, Trial 1
[21] = 60 μM, in liquid, wild type, with FuDR, 2.5 × 10^9 bacteria/ml, read-out: relative change of mean lifespan vs control, Trial 2
[22] = 60 μM, on plate, CF512 temperature-sensitive sterile animals, without FuDR, 2.0 × 10^10 bacteria/ml, read-out: relative change of mean lifespan vs control, Trial 3
[23] = Assay 2(z), at 66 uM, 1.0 × 10^9 bacteria/ml, wild type + FuDR (2012 July), read-out: Lifespan assay in liquid
[24] = Assay 3(aa), at 66 uM, 2.5 × 10^9 bacteria/ml, wild type + FuDR, read-out: Lifespan assay in liquid
[25] = Assay 4(ab), at 66 uM, 2.0 × 10^10 bacteria/ml, CF512 worms, no FuDR, read-out: Lifespan assay on plates
[26] = score scale 0 to 2, 4 to 6 independent trials
[27] = Assay 5(ac), at 66 uM, 1.0 × 10^11 bacteria/ml, CF512 worms, no FuDR, read-out: Lifespan assay on plates

Row | SMILES | H2O2-resistant (WI-38 cells [1]; [4]) | No H2O2 stress treatment, at 10 uM (fold change) (WI-38 cells [1]; WI-38 cells) | Assay 1: H2O2-resistant (WI-38 cells [1]) | H2O2-resistant (WI-38 cells [1]; [5]) | EC50 (WI-38 cells [1]; [6]) [µM] | EC50 (WI-38 cells [1]; [7]) [µM] | activity at 10 µM [2, 8] [%] | activity at 10 µM [2, 9] [%] | activity at 10 µM [2, 10] [%] | activity at 10 µM [2, 11] [%] | activity at 10 µM [2, 12] [%] | O = Potential toxicity (WI-38 cells [3]; human, 5 days, 10 μM) | Q = Potential toxicity (WI-38 cells [3]; human, 5 days, 10 μM) | I = FOXO3-dependency for H2O2-resistance (FOXO3; score) | I = FOXO3-dependency for H2O2-resistance (FOXO3; summary score) | ILS at 66 µM (C. elegans; [23]) [%] | ILS at 66 µM (C. elegans; [24]) [%] | ILS at 66 µM (C. elegans; [25]) [%] | O = Life span- extending scores in worms (C. elegans; [26]) | M = Lifespan-extending scores in worms (C. elegans; summary score) | further results
1 | COc1ccc(C(=O)/C=C/c2cccc(Cl)c2)c(OC)c1 [Gr-4C] | YES | 1.08 | YES | YES | 8.4 | 6.45 | 108 | 135 | 150 | 179 | 444 | 0 | 0 | 0 | 0 | -14.9 | 3.1 | -1.7 | 0 | 0 | R = Potential DNA damaging [2, 13]: 0; P = Potential DNA-damaging ([2]; summary score): 0; Luminescence signal for ATP measurement, day-1 Average (WI-38 cells [3]; [14]): 413360; Luminescence signal for ATP measurement, day-2 Average (WI-38 cells [3]; [15]): 474171; Luminescence signal for ATP measurement, day-3 Average (WI-38 cells [3]; [16]): 485641; Luminescence signal for ATP measurement, day-4 Average (WI-38 cells [3]; [17]): 769380; Luminescence signal for ATP measurement, day-5 Average (WI-38 cells [3]; [18]): 813018; viability at 10 µM (WI-38 cells [3]; [19]): 79.2%; ILS at 60 µM (C. elegans; [20]): -14.9%; ILS at 60 µM (C. elegans; [21]): 3.1%; ILS at 60 µM (C. elegans; [22]): -1.7%
2 | O=[N+]([O-])c1ccccc1S(=O)(=O)Nc1cccc2cccnc12 [Gr-3A] | YES | 0.98 | YES | YES | 11.2 | 4.21 | 139 | 338 | 143 | 334 | 66.1 | 0 | 0 | 0 | 0 | 33.4 | 14.2 | 16.3 | 2 (2 for observed in more than 2 trials) | 2 (2 for observed in more than 2 trials) | P = Potential DNA-damaging ([2]; human, 24 h): 1; R = Potential DNA damaging ([2]; human, 24 h): 1; Reduction of ATP content after 5 days of continuous incubation (WI-38 cells [3]; human, 5 days, 10 μM): more than 40%; ILS at 66 µM (C. elegans; [27]): 8.4%; Extension of C. elegans' lifespan (qualitative) (C. elegans): could extend animal's lifespan
3 | Oc1ccccc1-c1noc(-c2ccccc2O)n1 [O27] | YES | – | YES | YES | 12.7 | 12.7 | 122 | 338 | 26.1 | 241 | 379 | 0 | 1 | 0 | 0 | – | – | – | – | – | R = Potential DNA damaging [2, 13]: 1; P = Potential DNA-damaging ([2]; summary score): 1; Luminescence signal for ATP measurement, day-1 Average (WI-38 cells [3]): 431303; Luminescence signal for ATP measurement, day-2 Average (WI-38 cells [3]): 437195; Luminescence signal for ATP measurement, day-3 Average (WI-38 cells [3]): 517210; Luminescence signal for ATP measurement, day-4 Average (WI-38 cells [3]): 634360; Luminescence signal for ATP measurement, day-5 Average (WI-38 cells [3]): 587798; viability at 10 µM (WI-38 cells [3]): 57.2%; ILS at 66 µM (C. elegans; read-out: Lifespan assay on plates): -69.3%; ILS at 60 µM (C. elegans; read-out: relative change of mean lifespan vs control, Trial 1): -35.1%; ILS at 60 µM (C. elegans; read-out: relative change of mean lifespan vs control, Trial 2): -17.8%; ILS at 60 µM (C. elegans; read-out: relative change of mean lifespan vs control, Trial 3): -69.3%; M = Lifespan-extending scores in worms (C. elegans; in vivo): 0; O = Life span- extending scores in worms (C. elegans; in vivo): 0
4 | [O-][n+]1onc2c3nsnc3c(Br)cc21 [O17] | YES | 1.06 | – | YES | 8.5 | 8.5 | 96.7 | 72.1 | 129 | 148 | 349 | 0 | 0 | 0 | 0 | 1.7 | 22.6 | 19.7 | 2 (2 for observed in more than 2 trials) | 2 (2 for observed in more than 2 trials) | P = Potential DNA-damaging ([2]; human, 24 h): 0; R = Potential DNA damaging ([2]; human, 24 h): 0; Luminescence signal for ATP measurement, day-1 Average (WI-38 cells [3]; [14]): 507143; Luminescence signal for ATP measurement, day-2 Average (WI-38 cells [3]; [15]): 697351; Luminescence signal for ATP measurement, day-3 Average (WI-38 cells [3]; [16]): 849445; Luminescence signal for ATP measurement, day-4 Average (WI-38 cells [3]; [17]): 1073975; Luminescence signal for ATP measurement, day-5 Average (WI-38 cells [3]; [18]): 1070851; viability at 10 µM (WI-38 cells [3]; [19]): 104%; relative change of mean lifespan vs control, Trial 6 (confirmative) (C. elegans; 60 μM, on plate, temperature-sensitive sterile animals, without FuDR, 1.0 × 10^11 bacteria/ml): +20.8%; relative change of mean lifespan vs control, Trial 5 (confirmative) (C. elegans; 60 μM, on plate, temperature-sensitive sterile animals, without FuDR, 2.0 × 10^10 bacteria/ml): +15.2%; ILS at 60 µM (C. elegans; [20]): 1.7%; ILS at 60 µM (C. elegans; [21]): 22.6%; ILS at 60 µM (C. elegans; 60 μM, on plate, CF512 temperature-sensitive sterile animals, without FuDR, 1.0 × 10^11 bacteria/ml, read-out: relative change of mean lifespan vs control, Trial 4): 17.8%; ILS at 60 µM (C. elegans; [22]): 19.7%; ILS at 66 µM (C. elegans; [27]): 17.8%; ILS at 66 µM (C. elegans; Assay 6(ad), at 66 uM, 2.0 × 10^10 bacteria/ml, CF512 worms, no FuDR, read-out: Lifespan assay on plates): 15.2%; ILS at 66 µM (C. elegans; Assay 7(ae), at 66 uM, 1.0 × 10^11 bacteria/ml, CF512 worms, no FuDR, read-out: Lifespan assay on plates): 20.8%; Extension of C. elegans' lifespan (qualitative) (C. elegans): could extend animal's lifespan
